Laboratory results reported in article PMC4820820, “CETSA screening identifies known and novel thymidylate synthase inhibitors and slow intracellular activation of 5-fluorouracil” (Nature Communications, 2016).

target: T1, human thymidylate synthase (TS) (Homo sapiens, UniProt P04818); assay: ITDRF CETSA at 50 °C, AlphaScreen detection, live K562 cells; type: cell-based; details: 2 h preincubation, 50 °C for 3 min, read-out: […] EC50 (half-maximal stabilization of TS)
T1 construct: screening in live, non-engineered cells expressing thymidylate synthase; endogenous in cells; host or cells: K562 (human myelogenous leukemia) cells
T1 sequence (P04818 2-313 limits assumed): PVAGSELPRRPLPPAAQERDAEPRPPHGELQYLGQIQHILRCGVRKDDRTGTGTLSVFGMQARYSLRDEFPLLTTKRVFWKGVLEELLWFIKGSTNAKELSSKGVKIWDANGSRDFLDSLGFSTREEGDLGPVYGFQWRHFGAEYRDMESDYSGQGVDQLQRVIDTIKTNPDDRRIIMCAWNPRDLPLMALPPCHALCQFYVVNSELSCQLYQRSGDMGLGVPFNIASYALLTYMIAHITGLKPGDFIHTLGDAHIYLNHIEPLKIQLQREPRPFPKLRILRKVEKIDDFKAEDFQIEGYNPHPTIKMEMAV
Experimental: For the […] experiments 11-point dose-response curves with three-fold difference in concentration between wells were generated using the Bravo liquid handling system (all serial dilutions were done in 100% DMSO). […] The concentration of DMSO was 0.5% in all samples. […] The assay ready plates were prepared as outlined above for the screen.
(§1) The screen procedure started with the addition of 5 μl of a suspension of K562 cells at a density of 10 million cells per ml to all wells of a 384 well hardshell PCR plate (HSR480, BIORAD) using an electronic multichannel pipette (Biohit). […] For the time-course experiments the incubation times were altered to include also 10 min, 30 min and 6 h. […] After the incubation step the plates were transiently heated at 50 °C for 3 min followed by a controlled cooling to 20 °C for 1 min using a real-time PCR machine (LightCycler480 system, Roche). Plate handling was then as described above for the thermal aggregation experiments. The data were analyzed using microsoft excel and GraphPad Prism 6.
(§2) A calculation of the average and standard error of means for each set of controls also allowed an illustration of how these responses varied over the 32 screening plates. The Z′ factor[38] is commonly used as a measure of how well the assay separates between the controls and this was calculated as described based on the calculated averages and standard deviations of the controls on a per plate basis. For the Tagg shift and the […] experiments the data were analyzed in GraphPad Prism using the Boltzmann sigmoid equation and the saturation binding curve (rectangular hyperbola; binding isotherm) function, respectively. As already discussed[14] these methods make use of equilibrium models for data analysis although the methodology depends on the irreversible aggregation of denatured material. For this reason we refer to the observed responses as apparent and isothermal dose-response fingerprints and are careful with any quantitative interpretations, being well aware of their dependency on experimental conditions. Experiments are on-going to address the quantitative interpretation of CETSA data.

Row | EC50 [µM] | Compound
1 | 0.047 ± 0.015 | O=c1[nH]c(=O)n([C@@H]2O[C@H](CO)[C@@H](O)[C@H]2O)cc1F [5-fluorouridine]

target: T1, human thymidylate synthase (TS); assay: CETSA primary screen / single-concentration retest, AlphaScreen, live K562 cells; type: cell-based; details: 50 μM compound, 2 h preincubation, 50 °C; 0% = DMSO, 100% = 100 nM raltitrexed
Experimental: Compounds were placed in columns 1–22. […] At the day of the experiment the plates were allowed to thaw for 30 min followed by a brief centrifugation step (1,000 × g for 1 min) prior to removal of the seal. The compounds were then diluted with 20 μl supplemented cell culture medium using a Multidrop Combi reagent dispenser (Thermo Scientific). Finally 5 μl of the diluted compounds were transferred to a 384 well hardshell PCR plate (HSR480, BIORAD) using a Bravo liquid handling platform equipped with a 384-well head (Agilent). […] The final concentration of DMSO in the assay was 0.5% in all samples.
as §1, §2

Row | Compound | % stabilization in screen [%]
2 | O=c1nc2c(cn1[C@H]1C[C@@H](O)[C@@H](CO)O1)Sc1ccccc1N2 [CBK201237] | 9
3 | Cc1cn([C@@H]2O[C@H](CO)[C@H](O)C2O)c(=O)[nH]c1=O (stereo partly drawn) [CBK201265] | 17
4 | O=C(NC/C=C/c1cn(C2OC(CO)C(O)C2O)c(=O)[nH]c1=O)C(F)(F)F (stereo not drawn) [CBK201298] | -1
5 | O=c1[nH]c(=O)n([C@@H]2O[C@H](CO)[C@H](O)C2O)cc1Br (stereo partly drawn) [CBK201180] | -1
6 | O=c1ccn([C@H]2C[C@@H](O)[C@@H](CO)O2)c(=O)[nH]1 [CBK201316] | -1
7 | O=C(/C=C/c1cn(C2OC(CO)C(O)C2O)c(=O)[nH]c1=O)NCCCCCCNC(=O)C(F)(F)F (stereo not drawn) [CBK201231] | -1
8 | O=c1ncccn1[C@@H]1O[C@H](CO)[C@H](O)C1O (stereo partly drawn) [CBK201195] | 22
9 | O=C(/C=C/c1cn(C2CC(O)C(CO)O2)c(=O)[nH]c1=O)NCCCCCCNC(=O)C(F)(F)F (stereo not drawn) [CBK201310] | 15
10 | Cc1ccc(S(=O)(=O)OC[C@H]2O[C@@H](n3ccc(=O)[nH]c3=O)C[C@H]2O)cc1 [CBK201283] | -2
11 | Nc1nc(=O)n([C@H]2C[C@@H](O)[C@@H](CO)O2)cc1I [CBK201226] | 7
12 | Cn1c(=O)ccn([C@@H]2O[C@H](CO)[C@H](O)C2O)c1=O (stereo partly drawn) [CBK201281] | -1
13 | O=c1[nH]c(=O)n([C@@H]2O[C@H](CO)[C@H](O)C2O)cc1I (stereo partly drawn) [CBK201304] | -1
14 | O=c1[nH]c(=O)n([C@H]2C[C@@H](O)[C@@H](CO)O2)cc1O [CBK201317] | 16
15 | Cc1cn2c(nc1=O)OC[C@H]1O[C@@H]2C[C@H]1O [CBK201280] | 0
16 | Cc1cn([C@H]2C[C@@H](O)[C@@H](CO)O2)c(=O)nc1N.Cl [CBK201307] | 4
17 | Nc1nc(=O)n([C@@H]2O[C@H](CO)[C@H](O)C2O)cc1I (stereo partly drawn) [CBK201306] | -1
18 | C#CCOc1cn([C@H]2C[C@@H](O)[C@@H](CO)O2)c(=O)[nH]c1=O [CBK201278] | 7
19 | COC(=O)/C=C/c1cn(C2OC(CO)C(O)C2O)c(=O)[nH]c1=O (stereo not drawn) [CBK201339] | -1
20 | C#Cc1cn([C@@H]2O[C@H](CO)[C@H](O)C2O)c(=O)[nH]c1=O (stereo partly drawn) [CBK201179] | 20
21 | O=C(O)/C=C/c1cn([C@@H]2O[C@H](CO)[C@H](O)C2O)c(=O)[nH]c1=O (stereo partly drawn) [CBK201270] | -1
22 | CN(C)/C=N/c1nc(=O)n([C@H]2CC(O)[C@@H](CO)O2)cc1/C=C/C(=O)NCCCCCCNC(=O)C(F)(F)F (stereo partly drawn) [CBK201330] | 13
23 | C[CH2][Hg][S]c1ccccc1C(=O)[O-].[Na+] [CBK200591N, Thimerosal, reference compound] | 115
24 | Nc1ccn([C@H]2C[C@@H](O)[C@@H](CO)O2)c(=O)n1 [CBK201274] | -1
25 | Cc1cn([C@H]2C[C@@H](O)[C@@H](CI)O2)c(=O)[nH]c1=O [CBK201197] | -1

More lines, now with the values ahead:

Row | % stabilization in screen [%] | Compound
26 | 17 | O=c1[nH]c(=O)n([C@H]2C[C@@H](O)[C@@H](CO)O2)cc1CCO [CBK201239]
27 | -1 | Cc1cn([C@H]2C[C@@H](O)[C@@H](CN)O2)c(=O)[nH]c1=O [CBK201315]
28 | -1 | Cc1cn([C@H]2C[C@@H](O)[C@@H](CO)O2)c(=O)n(CCC#N)c1=O [CBK201322]
29 | 9 | O=c1[nH]c(=O)n([C@H]2C[C@@H](O)[C@@H](CO)O2)cc1CO [CBK201332]
30 | 20 | Cc1cc2cn([C@H]3C[C@@H](O)[C@@H](CO)O3)c(=O)nc2o1 [CBK201287]
31 | 21 | Cc1cc2cn([C@H]3C[C@@H](O)[C@@H](CO)O3)c(=O)nc2[nH]1 [CBK201302]
32 | 2 | COC1C(O)C(CO)OC1n1cc(F)c(=S)[nH]c1=O (stereo not drawn) [CBK201168]
33 | -1 | COC1C(O)C(CO)OC1n1cc(C)c(=O)[nH]c1=O (stereo not drawn) [CBK201251]
34 | 0 | COC1C(O)C(CO)OC1n1cc(F)c(Oc2c(C)cc(C)cc2C)nc1=O (stereo not drawn) [CBK201279]
35 | 61 | COC1C(O)C(CO)OC1n1cc(F)c(=O)[nH]c1=O (stereo not drawn) [CBK201253]
36 | -1 | Cc1cn(C2CC(O)C(CO)O2)c(=O)[nH]c1=O (stereo not drawn) [CBK011998]
37 | -1 | Cc1cn(C2CC(O)C(C3N(c4ccccc4)CCN3c3ccccc3)O2)c(=O)[nH]c1=O (stereo not drawn) [CBK201232]
38 | 17 | O=C(NC/C=C/c1cn(C2CC(O)C(CO)O2)c(=O)[nH]c1=O)C(F)(F)F (stereo not drawn) [CBK201249]
39 | 9 | O=C(/C=C/c1cn(C2CC(O)C(CO)O2)c(=O)[nH]c1=O)NCCNC(=O)C(F)(F)F (stereo not drawn) [CBK201214]
40 | 0 | Cc1cn(C2CC(O)C(CNC(=O)C(F)(F)F)O2)c(=O)[nH]c1=O (stereo not drawn) [CBK201200]
41 | 16 | O=C(/C=C/c1cn([C@H]2C[C@@H](O)[C@@H](CO)O2)c(=O)[nH]c1=O)ON1C(=O)CCC1=O [CBK201188]
42 | 17 | O=C(O)/C=C/c1cn([C@H]2C[C@@H](O)[C@@H](CO)O2)c(=O)[nH]c1=O [CBK201174]
43 | 16 | Nc1cccc(-c2cn([C@H]3C[C@@H](O)[C@@H](CO)O3)c(=O)[nH]c2=O)c1 [CBK201262]
44 | -1 | CCOc1nc(=O)c(C)cn1C1CC(O)C(CO)O1 (stereo not drawn) [CBK201334]

same assay, conditions: 6 h preincubation, K562 cells

Row | % stabilization at retest (6h preincubation) [%] | Compound
45 | 7 | O=c1[nH]c(=O)n([C@H]2C[C@@H](O)[C@@H](CO)O2)cc1CO [CBK201332]
46 | 5 | COC1C(O)C(CO)OC1n1cc(F)c(=S)[nH]c1=O (stereo not drawn) [CBK201168]
47 | 12 | C#CCOc1cn([C@H]2C[C@@H](O)[C@@H](CO)O2)c(=O)[nH]c1=O [CBK201278]

same assay, conditions: K562, 2 h, 50 μM compound, 2 h preincubation, 50 °C; 0% = DMSO, 100% = 100 nM raltitrexed; read-out: % stabilization in screen

Row | Compound | % stabilization in screen at 50 µM [%]
48 | CC(=O)OCC(=O)[C@@]12OC3(CCCC3)O[C@@H]1C[C@H]1[C@@H]3CCC4=CC(=O)C=C[C@]4(C)[C@@]3(F)[C@@H](O)C[C@@]12C [CBK200950, Amcinonid, reference compound] | 56
49 | Clc1ccc(C(Cn2ccnc2)OCc2csc3c(Cl)cccc23)c(Cl)c1 (stereo not drawn) [CBK200917G, Sertaconazole nitrate, reference compound] | 66

Continued, values first:

Row | % stabilization in screen at 50 µM [%] | Compound
50 | 17 | c1cnc(N2CCN(Cc3ccc4c(c3)OCO4)CC2)nc1 [CBK041124C, Piribedil, reference compound]
51 | 66 | CN1CCN(c2c(F)cc3c(=O)c(C(=O)O)cn(CCF)c3c2F)CC1 [CBK201030, Fleroxacin, reference compound]

same assay, conditions: K562, 2 h; read-out: % stabilization in screen

Row | Compound | % stabilization in screen at 50 µM [%]
52 | Nc1ccn([C@@H]2O[C@H](CO)[C@@H](O)C2(F)F)c(=O)n1 [CBK200978, gemcitabine, reference compound] | 0
53 | Nc1nc(N)c2nc(-c3ccccc3)c(N)nc2n1 [CBK012158, Triamterene, reference compound] | 78
54 | Nc1ncnc2c1nc(Br)n2[C@@H]1O[C@H](CO)[C@@H](O)[C@H]1O [CBK015742, 8-bromoadenosine] | 20
55 | Nc1ncn([C@@H]2O[C@H](CO)[C@@H](O)[C@H]2O)c(=O)n1 [CBK200768, 5-Azacytidine, reference compound] | 32
56 | C=CCOc1nc2c(=O)[nH]c(NC(=O)C(C)C)nc2n1[C@H]1C[C@H](O)[C@@H](CO)O1 [CBK201216, 8-allyloxy-N2-isobutyryl-2′-deoxyguanosine] | 30
57 | CC(C)NCC(O)c1ccc(NS(C)(=O)=O)cc1 (stereo not drawn) [CBK012353C, Sotalol, reference compound] | 14
58 | Cc1ccc(-c2cc(C(F)(F)F)nn2-c2ccc(S(N)(=O)=O)cc2)cc1 [CBK041793, Celecoxib, reference compound] | 61

Now from value to molecule:

Row | % stabilization in screen at 50 µM [%] | Compound
59 | 23 | Cc1ccc2c(c1)c1c3n2CCNC3CCC1 (stereo not drawn) [CBK200931G, Pirlindole, reference compound]
60 | 59 | COc1ccccc1N1CCN(CC(O)COc2cccc3ccccc23)CC1 (stereo not drawn) [CBK041301C, Naftopidil, reference compound]
